Experimental data from US20020193369A1, “Antifungal compounds and uses therefor” (priority 2000, published 2002).
≈ marks a conversion by molar mass, not a printed value. Read-outs that look alike come from different tables or passages of the source. Marks after values point to notes of the source that are not given here. Blank lines part the entries; values can stand above or below the compound they belong to.

How the values were obtained:
[1] = system: C. albicans strain ATCC 90028; experiment: Fold reduction of live cells after 24 hr incubation with combinations of azoles and potentiators; assay type: cell-based, Candida albicans
Description: (§1) Eleven structural analogs of INF 801 and fourteen analogs of INF 802 were purchased from ChemBridge, Maybridge and Aldrich and tested for activity. […] The numbers presented in these two tables indicate the -fold reduction in the number of live cells after 24 hour incubation with the combinations of azoles and potentiators. The higher the number, the higher the fungicidal activity of the combination. Note that concentrations of drags are somewhat different in the two tables, so the comparison between the two tables is not meaningful. [table] [table]

[2] = system: C. albicans; experiment: Fungicidal synergy with fluconazole against C. albicans (active concentration of leads and analogs); assay type: cell-based, Candida albicans; settings: for activity (concentration synergizing with fluconazole to a fungicidal effect): fluconazole 32 μg/ml; for concentration at which fungicidal activity is observed: combined with high concentrations of fluconazole (16 μg/ml and more)
Description: In summary, the performed screens of the chemical library identified a number of interesting potentiators of azole activity. Of these potentiators the inventors chose for further development two lead compounds, INF 801 and INF 802. […] Unlike compound INF 799, which is active at very low concentration (2 ng/ml, see above), INF 801 and INF 802 need to be present at relatively high concentrations to be active. When combined with high concentrations of fluconazole (16 μg/ml and more), their fungicidal activity is observed at 1.25 or 2.5 μg/ml, respectively. At concentrations of the azole that are clinically relevant (4 μg/ml), they are active only at ˜5-10 μg/ml.
as §1, with “meaningful.” for “meaningful. [table] [table]”

[3] = cited from earlier work
[4] = system: C. albicans; experiment: Time-kill experiments in liquid culture of C. albicans; assay type: cell-based, Candida albicans; settings: for effect on growth of the yeast, compound alone: 10 μg/ml, no fluconazole; for colonies from plating of a milliliter of culture: combination with fluconazole, culture initially 3000 CFU/ml; for drop in number of live cells after 24 hours, combination with fluconazole / drop in number of live cells after 48 hours, combination with fluconazole: fluconazole 32 μg/ml + compound 10 μg/ml
[5] = system: Candida krusei Strain M13C4; experiment: MIC of fluconazole for Candida krusei with lead compounds; assay type: cell-based; settings: for MIC of fluconazole: Fluconazole + lead compound
[6] = system: Candida krusei Strain M13C4; experiment: Killing of Candida krusei by fluconazole combinations (CFU/ml after 24 hours); assay type: cell-based; settings: for effect in combination with fluconazole on C. kruzei: fluconazole at concentration exceeding its MIC; for CFU/ml after 24 hours incubation: inoculated at 6000 CFU/ml; for effect of compound alone on C. kruzei: not shown
[7] = system: C. albicans; experiment: Paper disk zones of inhibition on YPD agar plates inoculated with C. albicans; assay type: cell-based, Candida albicans; settings: for zone of inhibition, combination with fluconazole: disk with fluconazole 1 mg/ml + compound 2.5 mg/ml
[8] = system: C. albicans; experiment: Growth of C. albicans in liquid culture with compound alone (without fluconazole); assay type: cell-based, Candida albicans
[9] = system: sterol composition of C. Albicans; experiment: TLC analysis of sterols of C. albicans; assay type: cell-based, Candida albicans; settings: 24 hours
[10] = Solubility limit; assay type: physicochemical; settings: liquid culture of C. albicans
[11] = system: C. albicans isolates; settings: cited from earlier work
[12] = system: C. albicans isolates (sensitive; isolate #4 over expressing MDR1); experiment: microbe, parasite or virus in culture; assay type: cell-based; settings: Candida albicans
[13] = system: Candida krusei Strain M13C4; settings: cited from earlier work
[14] = compound at 5 μg/ml, inoculum 8000 CFU/ml
[15] = compound at 10 μg/ml, inoculum 7600 CFU/ml
[16] = fluconazole 128 μg/ml + compound 20 μg/ml
[17] = disk soaked in fluconazole 1 mg/ml or compound 2.5 mg/ml in DMSO

SMILES: O=CC12c3ccccc3C(c3ccccc31)c1ccccc12 [S 060128]
- fold reduction of the concentration of live cells, + Fluconazole, 16 μg/ml [1, 14]: 36 fold
- fold reduction of the concentration of live cells, + Itraconazole, 1 μg/ml [1, 14]: 69 fold
- fold reduction of the concentration of live cells, + Ketaconazole, 1 μg/ml [1, 14]: 380 fold

SMILES: OC(CN1CCC(/C=C/C2=CC=CCC2)CC1)Cn1c2ccc(Cl)cc2c2cc(Cl)ccc21 (stereo not shown) [DV 236687]
- activity (concentration synergizing with fluconazole to a fungicidal effect) [2]: 10 µg/mL

SMILES: Clc1ccc(COC(Cn2ccnc2)c2ccc(Cl)cc2Cl)cc1 (stereo not shown) [Econazole]
- fraction absorbed into the blood ([3]; in vivo): Less than 1%

- MIC of fluconazole [5]: 16 µg/mL
SMILES: O=C(O)CCn1c2ccc(Cl)cc2c2cc(Cl)ccc21 [INF 801]
- effect on growth of the yeast, compound alone [4]: very little effect on the growth of the yeast
- colonies from plating of a milliliter of culture [4]: no colonies
- drop in number of live cells after 24 hours, combination with fluconazole [4]: two orders of magnitude
- drop in number of live cells after 48 hours, combination with fluconazole ([4]; 48 hours): more than three orders of magnitude
- fold reduction of the concentration of live cells, + Fluconazole, 16 μg/ml [1, 15]: 48* fold
- fold reduction of the concentration of live cells, + Itraconazole, 0.5 μg/ml [1, 15]: 30 fold
- fold reduction of the concentration of live cells, + Ketaconazole, 0.5 μg/ml [1, 15]: 28 fold
- effect in combination with fluconazole on C. kruzei [6]: strongly fungicidal
- CFU/ml after 24 hours incubation [6, 16]: 20 CFU/ml
- effect of compound alone on C. kruzei [6]: harmless
- growth within zones after a week of incubation, combination with fluconazole [7]: no growth
- zone of inhibition, single agent [7, 17]: narrow zones of inhibition
- zone of inhibition, combination with fluconazole [7]: large zones of inhibition lacking any growth
- concentration affecting growth of C. albicans without fluconazole [8]: exceeding 30 μg/ml
- concentration at which fungicidal activity is observed [2]: 1.25 µg/mL
- sterol pattern with fluconazole in the presence of INF 801 ([9]; differing concentrations of fluconazole): substituting sterols accumulate in much smaller amounts than in the control

- MIC of fluconazole [5]: 32 µg/mL
- solubility [10]: 80 µg/mL (≈ 268 µM)
SMILES: O=C(O)C12c3ccccc3C(c3ccccc31)c1ccccc12 [INF 802]
- effect on growth of the yeast, compound alone [4]: very little effect on the growth of the yeast
- colonies from plating of a milliliter of culture [4]: no colonies
- drop in number of live cells after 24 hours, combination with fluconazole [4]: two orders of magnitude
- drop in number of live cells after 48 hours, combination with fluconazole ([4]; 48 hours): more than three orders of magnitude
- fold reduction of the concentration of live cells, + Fluconazole, 16 μg/ml [1, 14]: 5.5 fold
- fold reduction of the concentration of live cells, + Itraconazole, 1 μg/ml [1, 14]: 5.0 fold
- fold reduction of the concentration of live cells, + Ketaconazole, 1 μg/ml [1, 14]: 6.0 fold
- effect in combination with fluconazole on C. kruzei [6]: strongly fungicidal
- CFU/ml after 24 hours incubation [6, 16]: 20 CFU/ml
- effect of compound alone on C. kruzei [6]: harmless
- growth within zones after a week of incubation, combination with fluconazole [7]: no growth
- zone of inhibition, single agent [7, 17]: narrow zones of inhibition
- zone of inhibition, combination with fluconazole [7]: large zones of inhibition lacking any growth
- concentration affecting growth of C. albicans without fluconazole [8]: > 80 µg/mL
- concentration at which fungicidal activity is observed [2]: 2.5 µg/mL

SMILES: OC(CN1CCC(/C=C/C2=CC=CCC2)CC1)Cn1c2ccccc2c2ccccc21 (stereo not shown) [DV 236683]
- activity (concentration synergizing with fluconazole to a fungicidal effect) [2]: 5 µg/mL

SMILES: CC(=O)N1CCN(c2ccc(OCC3COC(Cn4ccnc4)(c4ccc(Cl)cc4Cl)O3)cc2)CC1 (stereo not shown) [Ketoconazole]
- peak plasma concentrations ([3]; oral doses 200-800 mg): 4 to 20 µg/mL

SMILES: Clc1ccccc1C(c1ccccc1)(c1ccccc1)n1ccnc1 [Clotrimazole]
- absorption after application to the skin ([3]; in vivo): less than 0.5%
- absorption from the vagina ([3]; in vivo): 3-10%

SMILES: OCC(O)Cn1c2ccc(Br)cc2c2cc(Br)ccc21 (stereo not shown) [Compound S243213]
- fold reduction of the concentration of live cells, + Fluconazole, 16 μg/ml [1, 15]: 6.9 fold
- fold reduction of the concentration of live cells, + Itraconazole, 0.5 μg/ml [1, 15]: 6.3 fold
- fold reduction of the concentration of live cells, + Ketaconazole, 0.5 μg/ml [1, 15]: 7.8 fold
- activity (concentration synergizing with fluconazole to a fungicidal effect) [2]: 0.6 µg/mL

SMILES: OCC(O)Cn1c2ccc(Cl)cc2c2cc(Cl)ccc21 (stereo not shown) [DV 236818]
- activity (concentration synergizing with fluconazole to a fungicidal effect) [2]: 5 µg/mL

SMILES: CCC(C)n1ncn(-c2ccc(N3CCN(c4ccc(OCC5COC(Cn6cncn6)(c6ccc(Cl)cc6Cl)O5)cc4)CC3)cc2)c1=O (stereo not shown) [Itraconazole]
- absorption in the fasting state relative to drug taken with food ([3]; in vivo, po): 30%

SMILES: OC(Cn1cncn1)(Cn1cncn1)c1ccc(F)cc1F [Fluconazole, reference compound]
- change in number of CFUs after 48 hours, fluconazole alone ([4]; fluconazole 32 μg/ml, 48 hours): four orders of magnitude
- MIC of fluconazole after 48 hours ([11]; many isolates): exceeds 64 μg/ml
- MIC of fluconazole after 24 hours of incubation ([11]; most isolates): < 4 µg/mL
- MIC80 ([12]; read-out: MIC80 of fluconazole in sensitive isolates): 0.5 to 1 µg/mL (≈ 1.63 to 3.27 µM)
- MIC ([12]; read-out: MIC of fluconazole, isolate #4): 8 µg/mL
- MIC ([5]; Pichia kudriavzevii, STRAINM13C4, Fluconazole alone): 64 µg/mL
- effect of fluconazole alone on C. kruzei ([6]; 128 μg/ml): strongly fungistatic
- CFU/ml after 24 hours incubation ([6]; fluconazole 128 μg/ml alone): 6230 CFU/ml
- MIC of fluconazole for C. kruzei (general range) [13]: 8 to 128 µg/mL
- zone of inhibition, single agent [7]: pronounced zone of growth inhibition
- absorption from the GI tract ([3]; in vivo): almost completely absorbed
- effect of fluconazole on ergosterol ([9]; increasing concentrations of fluconazole): decrease in the amount of ergosterol
